pIC50: −log10 of the molar value.
Assays:
[1] = molecular target: TOP2A (Homo sapiens, UniProt P11388); assay: DNA relaxation assay (supercoiled pHOT-1 plasmid); format: biochemical; set-up: full-length human TOP2A and TOP2B protein (TopoGEN and Inspiralis respectively); purchased TopoGEN TG1001 (human TOP2 assay kit)
Protocol: The human TOP2A and TOP2B were used to perform DNA relaxation assays. […] The reaction was incubated at 37C for 2 h and stopped by adding 2 µl of 10% SDS and 1 µl of 250 mM of EDTA, followed by the addition of 50 µg/ml of proteinase K at 45 C for 1 h. The reaction was then resolved by electrophoresis on a 1% agarose gel at 80 V and stained with 0.5 µg/ml ethidium bromide for 15 min. DNA bands were visualized using a gel imager (Gel Doc™ EZ System) and quantified using the Image Studio™ Lite Quantification Software.

[2] = system: AR proteins in LNCaP cells; assay: AR nuclear localization, cytoplasmic/nuclear western blotting; format: cell-based; details: 20 µM, 24 h
[3] = system: salmon sperm DNA; assay: Ethidium bromide displacement assay; format: binding; details: increasing doses; 100 µg/ml DNA, 2 µg/ml ethidium bromide
Protocol: Ethidium bromide displacement assay was performed as previously described ([49], [50]) using Amsacrine (mAMSA) as a positive control. In a 20 µl reaction, compounds were mixed with 100 µg/ml of salmon sperm DNA and 2 µg/ml of ethidium bromide in a fluorescence buffer containing 10 mM HEPES, pH 7.9, 100 mM KCl, 5 mM MgCl2, 0.1 mM EDTA, pH 8.0. Triplicate reactions were subjected to fluorescence emission of 590 nm and excitation of 535 nm. Signals were detected by using the Multimode Microplate Reader, Infinite® F500.

TOP2A, sequence (P11388 whole entry): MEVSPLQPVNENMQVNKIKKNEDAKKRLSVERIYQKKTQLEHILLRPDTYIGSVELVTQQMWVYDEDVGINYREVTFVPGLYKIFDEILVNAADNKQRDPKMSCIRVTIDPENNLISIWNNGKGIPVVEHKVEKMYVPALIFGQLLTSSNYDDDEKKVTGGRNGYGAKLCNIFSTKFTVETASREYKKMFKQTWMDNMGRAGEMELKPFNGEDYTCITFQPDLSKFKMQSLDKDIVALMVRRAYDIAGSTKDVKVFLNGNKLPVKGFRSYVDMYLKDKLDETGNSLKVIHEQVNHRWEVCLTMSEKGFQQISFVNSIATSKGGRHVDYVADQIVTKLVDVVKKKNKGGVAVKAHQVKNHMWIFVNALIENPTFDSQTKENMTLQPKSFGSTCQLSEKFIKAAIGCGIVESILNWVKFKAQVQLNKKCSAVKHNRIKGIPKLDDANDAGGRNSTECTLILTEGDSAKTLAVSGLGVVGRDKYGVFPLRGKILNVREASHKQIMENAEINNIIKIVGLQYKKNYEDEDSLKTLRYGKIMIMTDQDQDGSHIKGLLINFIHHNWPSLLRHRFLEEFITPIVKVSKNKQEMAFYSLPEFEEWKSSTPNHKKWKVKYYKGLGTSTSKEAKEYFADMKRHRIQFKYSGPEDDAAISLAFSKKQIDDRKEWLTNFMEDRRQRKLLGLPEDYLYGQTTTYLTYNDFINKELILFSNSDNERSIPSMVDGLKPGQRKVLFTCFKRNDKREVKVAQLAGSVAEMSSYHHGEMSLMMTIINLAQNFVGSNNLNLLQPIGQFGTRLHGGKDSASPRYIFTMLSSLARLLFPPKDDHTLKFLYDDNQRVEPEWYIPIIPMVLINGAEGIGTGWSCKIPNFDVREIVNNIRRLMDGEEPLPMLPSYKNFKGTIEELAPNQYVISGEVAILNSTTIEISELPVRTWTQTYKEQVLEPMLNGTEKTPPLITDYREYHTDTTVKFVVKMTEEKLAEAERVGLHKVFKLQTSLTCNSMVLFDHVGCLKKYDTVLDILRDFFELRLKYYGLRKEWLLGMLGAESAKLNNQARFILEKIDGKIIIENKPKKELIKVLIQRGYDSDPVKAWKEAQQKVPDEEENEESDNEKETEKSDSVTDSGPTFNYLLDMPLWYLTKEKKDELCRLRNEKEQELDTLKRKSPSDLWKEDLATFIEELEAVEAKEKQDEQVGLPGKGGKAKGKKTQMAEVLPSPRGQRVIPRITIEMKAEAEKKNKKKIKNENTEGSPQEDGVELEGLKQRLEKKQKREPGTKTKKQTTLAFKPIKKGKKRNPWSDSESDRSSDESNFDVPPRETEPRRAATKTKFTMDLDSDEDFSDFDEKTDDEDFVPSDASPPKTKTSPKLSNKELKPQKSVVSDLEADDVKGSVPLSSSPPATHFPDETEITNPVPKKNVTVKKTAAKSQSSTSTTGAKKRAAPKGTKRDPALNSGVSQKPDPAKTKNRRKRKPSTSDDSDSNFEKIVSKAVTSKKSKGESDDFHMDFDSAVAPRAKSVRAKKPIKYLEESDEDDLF

## O=C(Nc1ccc(Nc2ccccc2)cc1)c1ccc[nH]c1=S [T60]
[1]; Figure 3B
  Inhibition of TOP2A activity changing supercoiled into relaxed plasmid DNA: inhibited
[1]; densitometry of SC bands, read-out: IC50, inhibition of TOP2A plasmid DNA relaxation
  pIC50: ~5.33
[2]
  Nuclear localization of AR proteins, LNCaP: reduced nuclear localization
[3]
  Fluorescence of ethidium bromide/DNA complex (DNA intercalation): does not intercalate with DNA
